Among the test systems are UACC-257 melanoma; A498 renal; HCC-2998 colon; COLO 205 colon; T-47D breast; MALME-3M melanoma; RPMI-8226 leukemia; SF-539 CNS; HS 578T breast; BT-549 breast.
Common to all, as to test: NCI anticancer screen, dose series, 48 h

The structures appear in SMILES notation.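 Assay format: 96-well plates, 48-hour exposure. GI50 = concentration required for 50% inhibition of growth. TGI: total growth inhibition.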 Some results are limits rather than exact numbers.

Turning to `O=C(OC[C@H]1O[C@H](OC(=O)c2cc(O)c(O)c(OC(=O)c3cc(O)c(O)c(O)c3)c2)[C@H](OC(=O)c2cc(O)c(O)c(OC(=O)c3cc(O)c(O)c(O)c3)c2)[C@@H](OC(=O)c2cc(O)c(O)c(OC(=O)c3cc(O)c(O)c(O)c3)c2)[C@@H]1OC(=O)c1cc(O)c(O)c(OC(=O)c2cc(O)c(O)c(O)c2)c1)c1cc(O)c(O)c(OC(=O)c2cc(O)c(O)c(O)c2)c1`, the GI50 in the test with UACC-257 melanoma was 13.4 µM; in the test on A498 renal it was > 25 µM; with HCC-2998 colon it was 2.52 µM; in the test on COLO 205 colon, 8.17 µM; in the test with T-47D breast it was 2.85 µM; in the test on MALME-3M melanoma, 7.42 µM. Also, the GI50 in the test on RPMI-8226 leukemia was 7.35 µM; with SF-539 CNS, 5.56 µM; in the test with HS 578T breast, 10.3 µM; in the test on BT-549 breast, 6.77 µM. For the same compound, the TGI with UACC-257 melanoma is > 25 µM; in the test with A498 renal, > 25 µM; with HCC-2998 colon, > 25 µM; with COLO 205 colon, > 25 µM; with T-47D breast, 16.6 µM; in the test with MALME-3M melanoma, > 25 µM. Also, the TGI in the test on RPMI-8226 leukemia, in the test with SF-539 CNS, in the test on HS 578T breast and with BT-549 breast was > 25 µM throughout.

On to `O=C1CCc2c(sc3[nH]c(=S)n(Cc4ccc(Cl)cc4)c(=O)c23)C1`, for which the GI50 in the test on UACC-257 melanoma was 1.33 µM; with A498 renal it was 1.87 µM; in the test with HCC-2998 colon, 0.577 µM; with COLO 205 colon, 1.92 µM; in the test on T-47D breast it was 0.377 µM; with MALME-3M melanoma, 0.972 µM. Also, the GI50 in the test on RPMI-8226 leukemia was 0.383 µM; with SF-539 CNS, 0.356 µM; with HS 578T breast it was 0.46 µM; in the test on BT-549 breast, 0.363 µM. Besides, the TGI with UACC-257 melanoma was found to be 5.72 µM; with A498 renal, 7.25 µM; in the test on HCC-2998 colon it was 2.3 µM; in the test with COLO 205 colon, 3.71 µM; in the test with T-47D breast, 3.59 µM; in the test with MALME-3M melanoma it was 3.9 µM. In addition, the results for the TGI in the test on SF-539 CNS, in the test on HS 578T breast and in the test with BT-549 breast were 1.63 µM, > 100 µM and 3.03 µM, respectively.
